Reference: US10919878B2, “MCT4 inhibitors and uses thereof” (CHARLES R. DREW UNIVERSITY OF MEDICINE AND SCIENCE, priority 2018, dated 2021)

Legend:
MDA-MB-231 tumors = assay: MDA-MB-231 TNBC xenograft tumor model in nude mice; type: in vivo; conditions: 20 mg/kg intraperitoneally, up to 4 weeks; for tumor growth (size and weight): daily 5 days then 2 days rest
Protocol: Values represent mean±SD, n=6-8 mice/group.
Values represent mean±SD, n=8 mice/group.
The anti-tumor effects of the MCT4 inhibitors CB-1, CB-2 and/or CB-3 were evaluated in nude mice implanted with human triple negative breast cancer (TNBC) cells (MDA-MB-231). For TNBC xenograft tumor models, MDA-MB-231 (5×10^6) cancer cells were injected subcutaneously into the flanks of female athymic nude mice (nu/nu, 4 weeks old). Two weeks after the injection of cancer cells, xenograft tumors were found in the injection site. Tumor dimensions were measured, and volume was calculated by length (L), width (W), and height (H) using the formula (volume=π/6×L×W×H). After the tumors reached a volume of 50 mm^3, the mice were injected intraperitoneally with 20 mg/kg CB-1, CB-2, CB-3 or with the vehicle solution (DMSO; i.e., Control) for up to 4 weeks. The MCT4 inhibitors were injected daily for 5 days and then mice were rested for 2 days.

MDA-MB-231 cells = assay: Viability/cytotoxicity assay (growth inhibition); type: cell-based; conditions: Homo sapiens, read-out: IC50, inhibition of cell proliferation
Protocol: Human cell lines MDA-MB-231 cells were obtained from ATCC (Rockville, Md.). These cells were authenticated by Laragen, Inc. (Culver City, Calif.), by short tandem repeat (STR) profiling, monitoring cell morphology and biological behavior, and tested to exclude mycoplasma contamination prior to use.
A viability/cytotoxicity assay was performed by culturing cells in 96-well plates. The following day the cells were treated with ½ serial dilutions of each compound or the solvent (DMSO) alone as a control. The amount of solvent was the same in all the conditions and each condition was tested in duplicate or triplicate. After 5 days incubation, the effect of the compounds on cell proliferation were determined by either MTT (3-(4,5-dimethylthiazol-2-yl)-2,5-diphenyltetrazolium bromide, Sigma-Aldrich, St. Louis, Mo.) or bioluminescence assay (Cell Titer Glo, Promega, Madison, Wis.). After incubation of the cells with MTT (1 mg/ml), the developed color was dissolved in DMSO and read by a plate reader. The bioluminescence assays were performed according to the manufacturer's recommendation. Growth inhibition rates were determined by comparing the read out for each compound dilution versus the control and from the growth inhibition curves from which the IC50 values were calculated. Each assay was performed at least twice.

MCT4 = biological target: T1, MCT4 (Homo sapiens, UniProt O15427); assay: Lactate secretion assay (LACTATE-GLO Assay); type: cell-based; conditions: MDA-MB-231 cells, compounds 2.5 μM, 48 h
T1 construct: host or cells: MDA-MB-231
T1 sequence (O15427 1-465): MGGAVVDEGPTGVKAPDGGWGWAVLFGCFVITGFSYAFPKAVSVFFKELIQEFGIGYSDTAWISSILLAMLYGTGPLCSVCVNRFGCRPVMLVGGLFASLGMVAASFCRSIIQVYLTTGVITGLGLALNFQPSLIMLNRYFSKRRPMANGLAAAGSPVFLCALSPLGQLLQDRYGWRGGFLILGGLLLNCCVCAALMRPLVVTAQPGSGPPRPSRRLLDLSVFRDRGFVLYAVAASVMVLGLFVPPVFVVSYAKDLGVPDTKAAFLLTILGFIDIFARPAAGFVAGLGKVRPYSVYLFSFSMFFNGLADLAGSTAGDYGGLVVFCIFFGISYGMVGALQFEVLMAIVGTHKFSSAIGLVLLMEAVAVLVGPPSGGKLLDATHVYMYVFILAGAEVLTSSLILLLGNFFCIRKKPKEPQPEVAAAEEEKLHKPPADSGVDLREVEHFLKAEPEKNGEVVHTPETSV
Protocol: Briefly, MDA-MB-231 cells were incubated with the various compounds (2.5 μM) for 48 h followed by a lactate secretion assay. […] Small compound names are shown on the x-axis. Diclofenac was used as a positive control.
MDA-MB-231 cells were incubated with various candidate compounds (2.5 μM) for 48 hours followed by lactate secretion assay with a LACTATE-GLO™ Assay kit (Promega Corporation, Madison, Wis.) according to the manufacturer's protocol.

SMILES	tumor growth (size and weight) (MDA-MB-231 tumors)	body weight of the mice (MDA-MB-231 tumors)	IC50 (MDA-MB-231 cells)	signs of systemic toxicity (MDA-MB-231 tumors)	lactate secretion inhibition (MCT4)
O=C(Nc1cc(Cl)ccc1Oc1ccc2ccccc2c1Br)c1cc(Cl)cc(I)c1O [CB-1, N-{2-[(1-bromo-2-naphthyl)oxy]-5-chlorophenyl}-5-chloro-2-hydroxy-3-iodobenzamide]	significantly inhibited tumor growth	began to lose weight	35.3 µM	–	–
O=C(Nc1ccc(Nc2cc(-n3ccnc3)ncn2)cc1)Nc1cc(F)cc(F)c1 [CB-3, N-(3,5-difluorophenyl)-N′-(4-{[6-(1H-imidazol-1-yl)-4-pyrimidinyl]amino}phenyl)urea]	strikingly reduced the size and weight	without affecting body weight	–	no detectable signs of systemic toxicity	most effective
